According to patent US9771563B2, “Chemical approaches for generation of induced pluripotent stem cells” (The Scripps Research Institute, priority 2008, dated 2017):

How the values were obtained:
[1] = system: human primary fibroblasts (CRL2097 or BJ); assay: Reprogramming of human primary fibroblasts transduced with 4TFs; assay type: cell-based
Procedure: We tested known inhibitors of the TGFβ receptor and MEK on 1×10^4 [Feng, B. et al., Cell Stem Cell 4, 301-12 (2009)] human primary fibroblasts (CRL2097 or BJ) that were retrovirally transduced with the 4TFs (Oct4, Klf4, Sox2 and c-Myc), for their effects on reprogramming kinetics and efficiency. On day 7 (D7) post-infection, the compounds were added, individually or in combinations, and the cultures were examined for iPSCs over the next 1-3 weeks.
The Slc7a1-expressing human fibroblast cells were seeded at 1×10^5 cells/well of a 6 well plate on the day 1. On day 2, 0.25 ml of each retroviral supernatant was added to the cells in the presence of 6 μg/ml polybrene. A second round of transduction was done on day 3. Infection efficiency was estimated by fluorescence microscopy on cells transduced in parallel with GFP or RFP gene-carrying retroviruses. Seven days after initial transduction, fibroblasts were harvested by trypsinization and re-plated at 1×10^4 cells/well of a 6 well plate coated with matrigel (1:50 dilution, cat 354234, BD Biosciences). For compound treatment, the cells were cultured in human reprogramming medium (DMEM/F12, 20% Knockout serum replacer, lx MEM Non-Essential amino acid, lx glutamax, 0.11 mM 2-Mercaptoethanol, 20 ng/ml bFGF and 1,000 U/ml LIF) and were treated with 2 μM SB431542 (Stemgent), 0.5 μM PD0325901 (Stemgent), or combinations of the compounds. The media were changed every 2-3 days depending on the cell density. Seven days after compound treatment, either the plates were fixed and stained for Alkaline phosphatase (ALP) activity, or stained for protein markers, or the cultures were continued with or without indicated splitting by trypsinization till day 30. For split cultures, the cells were split (1:4) and re-plated onto irradiated CF-1 MEF feeder layer (2.5×10^5 cells/well) in each well of 6 well plate and were split (1:10) again on day 21. The cells were maintained in the same media and compound cocktail described above except for the concentrations of PD0325901 (0.5 μM for D14 and 1 μM for D21) and SB431542 (0.5-1 μM after D14). The iPSC colonies were subsequently maintained in conventional hESC media in the absence of the above compounds.
Alkaline phosphatase staining was performed using ALP detection kit (cat no: SCR004, Chemicon) according to the product instructions. For immunocytochemistry, cells were fixed in 4% paraformaldehyde (10 min, RT), washed twice with PBS, blocked using 5% normal donkey serum (Chemicon) and 0.1% TritonX-100 (15 min, RT) and then treated with primary antibodies overnight at 4° C. The primary antibodies used were anti-NANOG (cat no: AB9220, Chemicon, 1:1,000); anti-OCT4 (cat no: sc-5279, Santa Cruz biotech, 1:200), anti-SSEA 4 (cat no: mab4304, Chemicon, 1:500), anti-Tra-1-81 (cat 560123, BD Biosciences, 1:100), anti-Tra-1-81 (mAb 4381, Chemicon, 1:500), anti-βIII TUBULIN (cat no: MMS-435P, Covance Research Products Inc, 1:1000), anti-PDX 1 (1:500) (a kind gift from Dr. C. Wright), anti-BRACHYURY (cat No: AF2085, R & D, final concentration 0.2 μg/ml). The cells were washed twice with PBS and then treated with secondary antibodies for 1 hour at room temperature. The secondary antibodies used were Alexa fluor 488 donkey anti-rabbit or anti-mouse IgG (Invitrogen, 1:1,000) and Alexa fluor 555 donkey anti-rabbit or anti-mouse IgG (Invitrogen, 1:1,000). Nuclei were stained with 0.5 μg/ml DAPI (Sigma). Images were captured using a Nikon Eclipse TE2000-U/X-cite 120 EXFO microscope with a photometric CoolSnap HQ2 camera.
We tested the TGFβ receptor inhibitor (SB431542), MEK inhibitor (PD0325901) and GSK-3 inhibitor (CHIR99021), on human fibroblast crl2097 that were retrovirally transduced with Oct4, Klf4, Sox2 and c-Myc, for their effects on reprogramming kinetics and efficiency. Conditions are the same as set forth in Example 5. Data were collected 8 days after compound treatment.

[2] = system: mouse embryonic fibroblasts (129 or OG2 MEFs); assay: Screen for iPSC generation from MEFs transduced with Oct4/Klf4 (OK); assay type: cell-based; conditions: for hit in second synergist screen: OK-transduced MEFs, 1 μM BIX in medium, compound 0.5-2 μM, not followed up
Procedure: Unmodified MEFs derived from E13-14 embryos of the 129 mice were used for the initial screen. MEFs were plated on Matrigel at 3.5×10^4 cells/well of a 6-well plate and transduced with OK (retroviral vectors expressing Oct4 and Klf4) alone. Within 14-21 days, treated cells were assessed for the appearance of colonies that had the characteristic embryonic stem cell (ESC) colony morphology and were positive for the pluripotency marker alkaline phosphatase (ALP). Such OK-transduced cells generated only a few small non-compact colonies, which were weakly positive for ALP expression. These colonies initially appeared within 21 days after viral transduction and were difficult to expand. Therefore, such assay system offered a clean background for the identification of small molecules having desirable reprogramming inducing activity. Using this system, compounds from a library of around 2000 known small molecules (see Experimental Procedures below) were screened and were identified as hits when they induced the appearance of ESC colonies that were strongly positive for ALP within 14-21 days after treatment. This image-based method provided a more accurate assessment of reprogramming as compared to homogenous reporter-based assay. BIX appeared to have the strongest effect with reproducible induction of more than 1-2 compact ESC-like colonies with high ALP expression. We observed that when MEFs were treated with BIX after OK viral transduction, compact colonies with strong ALP expression could be readily detected within approximately 14-21 days. These cells were also positive for Nanog, Oct4 and SSEA-1 expression. […] However, the reprogramming efficiency in MEFs transduced with OK and treated with BIX was still low, about 2 colonies/3.5×10^4 cells, in comparison to the four factor-induced reprogramming of MEFs or the OK/BIX NPC reprogramming (Shi, Y. et al., Cell Stem Cell, 2:525-528 (2008)). Therefore, we conducted a second screen using a similar protocol, but where BIX was added to the basal media after OK viral transduction. This provided a more permissive platform to identify new small molecules that could further improve reprogramming efficiency. More importantly, this second screen could facilitate discovery of small molecules that impact reprogramming in a more specific manner, for example by acting on signal transduction pathways rather than on histone or DNA modifying enzymes. In this second screen, we again assayed the library of around 2000 known small molecules (see Experimental Procedures), and confirmed two compounds that were able to act in a synergistic manner with BIX to improve reprogramming based on the criteria of the screen. […] Therefore, RG108 was not pursued further for this study. Instead, we focused our phenotypic and functional characterization on another small molecule that was identified in the second screen, BayK, an L-calcium channel agonist. […] Therefore, BayK might play a more specific role in the reprogramming process. When 129 MEFs were transduced with empty retrovirus (negative control); no colonies observed. When 129 MEFs were transduced with OK without small molecules; few small flattened colonies with weak ALP expression present. […] When OK-transduced MEFs were treated with BIX in combination with BayK, a significant increase in the number of ALP^+ colonies that closely resemble the mESC morphology could be observed (˜7 colonies) as compared to OK-transduced MEFs treated with BIX alone (˜2 colonies).
Primary 12952/SvPasCrlf (primary screen) or ROSA26^+/−/OG2^+/− (secondary screen) MEFs were plated onto Matrigel (1:50; BD Biosciences, Bedford, Mass.) coated dishes at a density of 3.5×10^4 cells per well of a 6-well plate. Twenty-four hours later, these cells were transduced overnight with defined retroviruses at 37° C., 5% CO2. […] (all products were from Invitrogen, Carlsbad, Calif., except where mentioned). […]

[3] = system: primary OG2 neural progenitor cells; assay: iPS cell induction from neural progenitor cells after retroviral transduction; assay type: cell-based, mouse; conditions: applied at late stage of reprogramming (after Oct4-GFP activation)
Procedure: The reporter neural progenitor cells were generated using a well established protocol by differentiating the Oct4-GiP mESCs grown in monolayer on gelatin in a chemically defined medium/CDM condition in the absence of serum and other growth factors/cytokines at low cell density for eight days, followed by neurophere formation and subsequent serial passaging in single cells in neural cell expansion media supplemented with 10 ng/ml of bFGF and EGF in monolayer for over six passages/24 days. The resulting neural progenitor cells were homogenous by cell morphology and neural marker expression, and were confirmed to be GFP negative and puromycin sensitive. Such neural progenitor cells plated in monolayer in conventional mESC growth media were transduced with combinations of four, three, or two of the four factors, followed by treating the transduced cells with individual small molecules from a small known drug collection in a typical 6-well format. The compound treatment and culture were continued for additional ten days before puromycin was added. The number of green and puro-resistant colonies was counted at day 14. In comparison to the only four-gene transduced neural cells as the positive control, compound conditions that generated more green colonies than the corresponding gene-only conditions were picked as primary hits. To further confirm these primary hit conditions, we chose to use a late passage of mouse CNS neural progenitor cells (Do, J. T. et al., Stem Cells 25, 1013-1020 (2007)) that were derived from fetal brain of OG2^+/−/ROSA26^+/− transgenic mice (which contain an Oct4-GFP reporter) and expanded in monolayer under the same neural CDM condition as the above with 10 ng/ml of bFGF and EGF. Such cells truly from a non-pluripotent tissue would be devoid of concerns of any contaminating ES cell in the above screening system, which is highly unlikely with all appropriate controls. Similar culture conditions and reprogramming assays were performed using the OG2 neural progenitor cells except that puromycin was not used and green colonies were picked out and characterized by staining of Nanog, SSEA1 and ALP.
mESC-derived or primary OG2 mouse neural progenitor cells were plated into Matrigel (1:50, BD Biosciences) coated 6-well plates at 3.5×10^4 cells/well in the neural progenitor cell expansion media. After one day these cells were transduced with retrovirus for overnight, and the medium was changed into the mESC growth media [DMEM, 5% FBS, 10% KSR, 1× non-essential amino acids (Gibco), 2 mM L-glutamine (Gibco), 0.1 mM β-mercaptoethanol (Gibco) and 10^3 unit/ml LIF (Chemicon)] with or without BIX01294 (0.5-1 μM). GFP-positive iPS cell colonies appeared after 9-14 days, and were picked out and expanded on MEF feeder cells with the mESC growth media.

mouse fibroblasts = assay: Reprogramming of mouse fibroblasts with exogenous poly-Arg transcription factor proteins; assay type: cell-based; conditions: cells incubated with transcription factor proteins plus agent
Procedure: Mouse fibroblasts were grown in mESC medium supplemented with 8 μg/ml of either Oct4/Sox2/Klf4 or Oct4/Sox2/Klf4/Myc (all proteins comprising poly-Arg as described above) for 6-8 hours, washed, and incubated for 2-3 days in mESC media without the above-listed transcription factors. This (4-12 hours with, 1-3 days without) was repeated a number (1, 2, 3, 4, or more) of times and then the cells were cultured in mESC for two weeks.
Mouse fibroblasts were grown in mESC growth medium [Knockout DMEM (Invitrogen) supplemented with 10% ES-FBS+10% KSR, 0.1 mM 2-ME, 1% Glutamax, 1% Non-essential amino acids, 1% EmbryoMax ESC Qualified Nucleosides (Millipore), and 10^3 units/ml LIF (ESGRO, Chemicon International)] supplemented with 8 μg/ml of Oct4/Sox2/Klf4/Myc (all four transcription factors are tagged with poly-Arg […]; SEQ ID NO:2) for 4-12 hours, followed by culturing the cells in the absence of the Oct4/Sox2/Klf4/Myc polypeptides for one day. This procedure was repeated 4 times. The cells were then cultured in mESC medium for another two weeks. iPSC clones were detected by colony morphology and expression of pluripotency markers. An intermediate iPSC clone, which expresses ALP but not Oct4 (Oct4), was dissociated with Trypsin-EDTA. The clone was then expanded by continuous culturing with regular mESC medium or medium supplemented with 0.5 μM PD0325901, 3 μM CHIR99021, 0.5 μM A-83-01. The number of Oct4-positive colonies were counted 2 weeks after small molecule treatment (FIG. 14).

TGFβ
effect on 4 factor-mediated reprogramming of fibroblasts ([1]; addition of TGFβ): had an inhibitory effect on 4 factor-mediated reprogramming of fibroblasts

CCN(CC)CCCCNc1ncc2cc(-c3cc(OC)cc(OC)c3)c(NC(=O)NC(C)(C)C)nc2n1 [PD173074]
hit in second synergist screen [2]: primary hits

O=C(NOC[C@H](O)CO)c1ccc(F)c(F)c1Nc1ccc(I)cc1F [PD0325901]
growth of non-iPS cells and iPS cells (selection) [3]: inhibits growth of non-iPS cells while it effectively promotes growth and stable reprogramming of iPS cells | efficiency and speed of development of pluripotent cells (mouse fibroblasts): improved efficiency and speed of development of pluripotent cells | ALP+ colonies with hESC-like morphology (FIG. 7A) ([1]; 4TFs transduced fibroblasts, 7 days after compound treatment, SB431542 at 2 μM): yielded none | colonies stained positive for SSEA4 and NANOG ([1]; day 7 post-treatment (D14)): no NANOG^+ colonies were observed

O=C(O)C(Cc1c[nH]c2ccccc12)N1C(=O)c2ccccc2C1=O (stereo not drawn) [RG108]
reprogramming of OK transduced MEFs (second screen) ([2]; in the presence of BIX): enhanced reprogramming of OK transduced MEFs in the presence of BIX

c1nc2nc(Nc3ccc(N4CCOCC4)cc3)nc(NC3CCCCC3)c2[nH]1 [reversine]
hit in second synergist screen [2]: primary hits

Cc1cc(Nc2ncc3c(n2)N(C)C(=O)N(c2cc(NC(=O)c4cccc(C(F)(F)F)c4)ccc2C)C3)n(C)n1 [pluripotin]
hit in second synergist screen [2]: primary hits
